# Results reported in ChEMBL document CHEMBL5365497, “Developing Novel Coumarin-Containing Azoles Antifungal Agents by the Scaffold Merging Strategy for Treating Azole-Resistant Candidiasis” (J Med Chem, 2023).
# Active and inactive are the calls of the source. The calls are words filed in the database; no cut-off is given here.
# Experiments:
# Candida albicans [1] = experiment: Antifungal activity against Candida albicans CPCC400616 assessed as fungal growth inhibition by CLSI based microdilution method; assay type: functional
# Candida albicans [2] = experiment: Antifungal activity against Candida albicans SC5314 assessed as fungal growth inhibition by CLSI based microdilution method; assay type: functional
# Candida parapsilosis = experiment: Antifungal activity against Candida parapsilosis assessed as fungal growth inhibition by CLSI based microdilution method; assay type: functional; settings: Lodderomyces parapsilosis
# Nakaseomyces glabratus = experiment: Antifungal activity against Candida glabrata assessed as fungal growth inhibition by CLSI based microdilution method; assay type: functional
# Pichia kudriavzevii = experiment: Antifungal activity against Pichia kudriavzevii assessed as fungal growth inhibition by CLSI based microdilution method; assay type: functional
# Candida tropicalis = experiment: Antifungal activity against Candida tropicalis assessed as fungal growth inhibition by CLSI based microdilution method; assay type: functional
# Cryptococcus neoformans = experiment: Antifungal activity against Cryptococcus neoformans assessed as fungal growth inhibition by CLSI based microdilution method; assay type: functional
# Candida albicans [3] = experiment: Antifungal activity against fluconazole-resistant Candida albicans CaR assessed as fungal growth inhibition by CLSI based microdilution method; assay type: functional
# Candida albicans [4] = experiment: Antifungal activity against fluconazole-resistant Candida albicans 17# assessed as fungal growth inhibition by CLSI based microdilution method; assay type: functional
# Candida albicans [5] = experiment: Antifungal activity against fluconazole-resistant Candida albicans 632 assessed as fungal growth inhibition by CLSI based microdilution method; assay type: functional
# Candida albicans [6] = experiment: Antifungal activity against fluconazole-resistant Candida albicans 904 assessed as fungal growth inhibition by CLSI based microdilution method; assay type: functional
# Candida albicans [7] = experiment: Antifungal activity against fluconazole-resistant Candida albicans 901 assessed as fungal growth inhibition by CLSI based microdilution method; assay type: functional
# Cytochrome P450 1A2 = target: T1, Cytochrome P450 1A2 (Homo sapiens, UniProt P05177); experiment: Inhibition of CYP1A2 in human liver microsomes using phenacetin as substrate preincubated for 5 mins followed by NADPH addition by LC-MS/MS analysis; assay type: ADME, Microsome
# T1 sequence (P05177 whole entry): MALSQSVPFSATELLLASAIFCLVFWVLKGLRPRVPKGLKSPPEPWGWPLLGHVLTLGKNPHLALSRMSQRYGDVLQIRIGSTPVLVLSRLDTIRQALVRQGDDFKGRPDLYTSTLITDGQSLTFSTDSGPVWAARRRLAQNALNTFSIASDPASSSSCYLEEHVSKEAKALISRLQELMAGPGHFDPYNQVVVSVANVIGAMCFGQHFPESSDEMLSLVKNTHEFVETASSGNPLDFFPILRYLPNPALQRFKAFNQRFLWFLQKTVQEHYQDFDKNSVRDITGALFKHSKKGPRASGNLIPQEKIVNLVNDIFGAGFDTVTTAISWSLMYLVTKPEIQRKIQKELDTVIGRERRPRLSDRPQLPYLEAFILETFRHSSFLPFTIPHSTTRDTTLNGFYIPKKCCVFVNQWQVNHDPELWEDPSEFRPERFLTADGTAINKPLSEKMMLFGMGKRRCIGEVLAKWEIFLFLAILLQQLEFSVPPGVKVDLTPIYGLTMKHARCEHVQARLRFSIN
# [8] = Stability in mouse plasma assessed as compound remaining at 1 uM measured for 180 mins by LC-MS/MS analysis; assay type: ADME, cell-free; settings: read-out: Stability
# [9] = Stability in mouse plasma assessed as half life at 1 uM measured for 180 mins by LC-MS/MS analysis; assay type: ADME, cell-free
# Cytochrome P450 2C9 = Cytochrome P450 2C9 (Homo sapiens, UniProt P11712); experiment: Inhibition of CYP2C9 in human liver microsomes using diclofenac as substrate preincubated for 5 mins followed by NADPH addition by LC-MS/MS analysis; assay type: ADME, Microsome
# Sequence of Cytochrome P450 2C9 (P11712 whole entry): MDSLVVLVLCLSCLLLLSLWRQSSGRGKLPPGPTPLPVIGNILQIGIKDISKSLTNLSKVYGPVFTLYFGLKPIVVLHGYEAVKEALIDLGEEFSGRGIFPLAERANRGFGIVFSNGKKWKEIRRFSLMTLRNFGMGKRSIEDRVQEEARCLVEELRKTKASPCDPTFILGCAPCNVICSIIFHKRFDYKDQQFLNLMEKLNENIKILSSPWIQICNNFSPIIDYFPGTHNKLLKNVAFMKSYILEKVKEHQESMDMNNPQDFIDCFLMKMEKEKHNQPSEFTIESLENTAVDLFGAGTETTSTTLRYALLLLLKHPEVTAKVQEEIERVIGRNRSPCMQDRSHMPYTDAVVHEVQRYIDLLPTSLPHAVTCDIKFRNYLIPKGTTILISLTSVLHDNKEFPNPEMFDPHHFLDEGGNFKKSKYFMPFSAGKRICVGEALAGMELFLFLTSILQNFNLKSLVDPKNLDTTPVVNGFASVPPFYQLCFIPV
# Cytochrome P450 2D6 = Cytochrome P450 2D6 (Homo sapiens, UniProt P10635); experiment: Inhibition of CYP2D6 in human liver microsomes using dextromethorphan as substrate preincubated for 5 mins followed by NADPH addition by LC-MS/MS analysis; assay type: ADME, Microsome
# Sequence of Cytochrome P450 2D6 (P10635 whole entry): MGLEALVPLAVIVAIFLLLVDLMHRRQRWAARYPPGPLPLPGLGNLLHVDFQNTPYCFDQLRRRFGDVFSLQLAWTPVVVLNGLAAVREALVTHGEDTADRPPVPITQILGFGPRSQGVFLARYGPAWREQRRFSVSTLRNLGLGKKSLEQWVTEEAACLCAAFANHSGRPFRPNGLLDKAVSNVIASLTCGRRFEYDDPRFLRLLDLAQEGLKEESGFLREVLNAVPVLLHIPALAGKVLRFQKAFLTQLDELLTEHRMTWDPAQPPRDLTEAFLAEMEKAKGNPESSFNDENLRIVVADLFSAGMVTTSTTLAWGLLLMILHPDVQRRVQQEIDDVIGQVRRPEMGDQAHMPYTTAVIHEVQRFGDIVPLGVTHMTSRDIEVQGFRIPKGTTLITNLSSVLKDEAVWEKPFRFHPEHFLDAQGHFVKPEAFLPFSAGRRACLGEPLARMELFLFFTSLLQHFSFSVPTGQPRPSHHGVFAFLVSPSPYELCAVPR
# [10] = Cytotoxicity against mouse J774.A1 cells assessed as cell growth inhibition by MTT assay; assay type: toxicity, cell-based
# [11] = target: T2, Lanosterol 14-alpha demethylase (Candida albicans (strain SC5314 / ATCC MYA-2876) (Yeast), UniProt P10613); experiment: Inhibition of CYP51 in Candida albicans SC5314 assessed as ergosterol level at 0.03125 ug/ml incubated for 24 hrs by GC-MS analysis (reference value: 97.58 %); parameters: scale not given: the % may be the effect or the level left; settings: at 0.03125 µg/mL
# T2 sequence (P10613 whole entry): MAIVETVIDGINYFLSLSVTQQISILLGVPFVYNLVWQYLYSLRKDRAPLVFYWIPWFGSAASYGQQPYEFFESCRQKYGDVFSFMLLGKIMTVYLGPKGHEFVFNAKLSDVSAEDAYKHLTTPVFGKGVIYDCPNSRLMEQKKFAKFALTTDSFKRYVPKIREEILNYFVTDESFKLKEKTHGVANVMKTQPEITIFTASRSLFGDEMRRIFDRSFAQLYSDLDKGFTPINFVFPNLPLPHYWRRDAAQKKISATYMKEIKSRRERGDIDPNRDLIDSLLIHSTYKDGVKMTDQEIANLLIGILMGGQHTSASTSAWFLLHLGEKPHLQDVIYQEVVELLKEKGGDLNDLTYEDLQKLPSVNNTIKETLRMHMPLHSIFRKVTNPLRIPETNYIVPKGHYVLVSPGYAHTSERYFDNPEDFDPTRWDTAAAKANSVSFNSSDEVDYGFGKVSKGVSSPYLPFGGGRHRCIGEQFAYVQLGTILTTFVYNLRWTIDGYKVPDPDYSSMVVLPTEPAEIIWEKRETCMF
# [12] = target: T2, Lanosterol 14-alpha demethylase; experiment: Inhibition of CYP51 in Candida albicans SC5314 assessed as increase in eburicol level at 0.03125 ug/ml incubated for 24 hrs by GC-MS analysis; settings: at 0.03125 µg/mL
# [13] = target: T2, Lanosterol 14-alpha demethylase; experiment: Inhibition of CYP51 in Candida albicans SC5314 assessed as increase in obtusifoliol level at 0.03125 ug/ml incubated for 24 hrs by GC-MS analysis; settings: at 0.03125 µg/mL
# [14] = target: T2, Lanosterol 14-alpha demethylase; experiment: Inhibition of CYP51 in Candida albicans SC5314 assessed as increase in lanosterol level at 0.03125 ug/ml incubated for 24 hrs by GC-MS analysis; settings: at 0.03125 µg/mL
# Candida albicans [15] = experiment: Antifungal activity against Candida albicans CPCC400616 assessed as inhibition of yeast to hypha morphological transition at 2 ug/ml incubated for 4 hrs by inverted microscopy; assay type: functional, organism-based; settings: dose 2.0 µg/ml
# Candida albicans [16] = experiment: Antifungal activity against fluconazole-resistant Candida albicans 904 assessed as inhibition of yeast to hypha morphological transition at 16 ug/ml incubated for 4 hrs by inverted microscopy; assay type: functional, organism-based; settings: dose 16.0 µg/ml
# Candida albicans [17] = experiment: Antibiofilm activity against Candida albicans CPCC400616 incubated for 24 hrs by XTT reduction assay; assay type: functional, organism-based; settings: dose <= 128.0 µg/ml
# Candida albicans [18] = experiment: Antibiofilm activity against fluconazole-resistant Candida albicans 904 incubated for 24 hrs by XTT reduction assay; assay type: functional, organism-based; settings: dose <= 128.0 µg/ml
# Candida albicans [19] = experiment: Antifungal activity against Candida albicans CPCC400616 assessed as reduction in EFG1 expression at 2 ug/ml incubated for 12 hrs by RT-PCR analysis; assay type: functional, organism-based; settings: dose 2.0 µg/ml
# Candida albicans [20] = experiment: Antifungal activity against fluconazole-resistant Candida albicans 904 assessed as reduction in EFG1 expression at 16 ug/ml incubated for 12 hrs by RT-PCR analysis; assay type: functional, organism-based; settings: dose 16.0 µg/ml
# Candida albicans [21] = experiment: Antifungal activity against Candida albicans CPCC400616 assessed as reduction in TEC1 expression at 2 ug/ml incubated for 12 hrs by RT-PCR analysis; assay type: functional, organism-based; settings: dose 2.0 µg/ml
# Candida albicans [22] = experiment: Antifungal activity against fluconazole-resistant Candida albicans 904 assessed as reduction in TEC1 expression at 16 ug/ml incubated for 12 hrs by RT-PCR analysis; assay type: functional, organism-based; settings: dose 16.0 µg/ml
# Candida albicans [23] = experiment: Antifungal activity against Candida albicans CPCC400616 assessed as reduction in CPH1 expression at 2 ug/ml incubated for 12 hrs by RT-PCR analysis; assay type: functional, organism-based; settings: dose 2.0 µg/ml
# Candida albicans [24] = experiment: Antifungal activity against fluconazole-resistant Candida albicans 904 assessed as reduction in CPH1 expression at 16 ug/ml incubated for 12 hrs by RT-PCR analysis; assay type: functional, organism-based; settings: dose 16.0 µg/ml
# Candida albicans [25] = experiment: Antifungal activity against Candida albicans CPCC400616 assessed as reduction in ALS3 expression at 2 ug/ml incubated for 12 hrs by RT-PCR analysis; assay type: functional, organism-based; settings: dose 2.0 µg/ml
# Candida albicans [26] = experiment: Antifungal activity against fluconazole-resistant Candida albicans 904 assessed as reduction in ALS3 expression at 16 ug/ml incubated for 12 hrs by RT-PCR analysis; assay type: functional, organism-based; settings: dose 16.0 µg/ml
# Candida albicans [27] = experiment: Antifungal activity against fluconazole-resistant Candida albicans 904 assessed as decrease in ERG11 expression at 16 ug/ml measured after 16 hrs by RT-PCR analysis; assay type: functional, organism-based; settings: dose 16.0 µg/ml
# Candida albicans [28] = experiment: Antifungal activity against fluconazole-resistant Candida albicans 904 assessed as decrease in CDR1 expression at 16 ug/ml measured after 16 hrs by RT-PCR analysis; assay type: functional, organism-based; settings: dose 16.0 µg/ml
# Candida albicans [29] = experiment: Antifungal activity against fluconazole-resistant Candida albicans 904 assessed as decrease in CDR2 expression at 16 ug/ml measured after 16 hrs by RT-PCR analysis; assay type: functional, organism-based; settings: dose 16.0 µg/ml
# Candida albicans [30] = experiment: Antifungal activity against fluconazole-resistant Candida albicans 904 assessed as decrease in MDR1 expression at 16 ug/ml measured after 16 hrs by RT-PCR analysis; assay type: functional, organism-based; settings: dose 16.0 µg/ml
# Candida albicans [31] = experiment: Induction of ROS production in fluconazole-resistant Candida albicans 904 at 64 ug/ml incubated for 30 mins by fluorescence microscopy; assay type: functional, organism-based; settings: dose 64.0 µg/ml
# [32] = Metabolic stability in mouse liver microsomes assessed as half life incubated for 5 to 60 mins by LC-MS/MS analysis; assay type: ADME, Microsome; settings: time 5-60 min
compound,measurement,setting,value
O=c1ccc2cc(COC(Cn3ccnc3)c3ccc(F)cc3)ccc2o1 (stereo unspecified),MIC,Candida albicans [1],2 µg/mL
same,MIC,Candida albicans [2],0.5 µg/mL
same,MIC,Candida parapsilosis,4 µg/mL
same,MIC,Nakaseomyces glabratus,32 µg/mL
same,MIC,Pichia kudriavzevii,64 µg/mL
same,MIC,Candida tropicalis,8 µg/mL
same,MIC,Cryptococcus neoformans,64 µg/mL
same,MIC,Candida albicans [3],128 µg/mL
same,MIC,Candida albicans [4],128 µg/mL
same,MIC,Candida albicans [5],64 µg/mL
same,MIC,Candida albicans [6],32 µg/mL
same,MIC,Candida albicans [7],64 µg/mL
Clc1ccc(COC(Cn2ccnc2)c2ccc(Cl)cc2Cl)c(Cl)c1 (stereo unspecified) [MICONAZOLE],MIC,Candida albicans [1],0.25 µg/mL
same,MIC,Candida albicans [2],0.03 µg/mL
same,MIC,Candida parapsilosis,0.25 µg/mL
same,MIC,Nakaseomyces glabratus,0.5 µg/mL
same,MIC,Pichia kudriavzevii,0.5 µg/mL
same,MIC,Candida tropicalis,1 µg/mL
same,MIC,Cryptococcus neoformans,0.25 µg/mL
same,IC50,Cytochrome P450 1A2,2.62 µM
same,"remaining at 3 h, 1 µM",[8],94.9%
same,half-life at 1 µM,[9],> 360 min
same,IC50,Cytochrome P450 2C9,0.115 µM
same,IC50,Cytochrome P450 2D6,0.875 µM
same,IC50,[10],22.2 µM
O=c1oc2ccccc2cc1COC(Cn1ccnc1)c1ccc(Cl)cc1Cl (stereo unspecified),MIC,Candida albicans [1],0.06 µg/mL
same,MIC,Candida albicans [2],0.03 µg/mL
same,MIC,Candida parapsilosis,< 0.25 µg/mL
same,MIC,Nakaseomyces glabratus,1 µg/mL
same,MIC,Pichia kudriavzevii,0.25 µg/mL
same,MIC,Candida tropicalis,0.5 µg/mL
same,MIC,Cryptococcus neoformans,0.015 µg/mL
same,Activity,[11],16.17%
same,inhibition (INH),[12],Active
same,inhibition (INH),[13],Active
same,inhibition (INH),[14],Active
same,MIC,Candida albicans [3],0.5 µg/mL
same,MIC,Candida albicans [4],8 µg/mL
same,MIC,Candida albicans [5],8 µg/mL
same,MIC,Candida albicans [6],2 µg/mL
same,MIC,Candida albicans [7],4 µg/mL
same,inhibition,Candida albicans [15],Active
same,inhibition,Candida albicans [16],Active
same,Activity,Candida albicans [17],Dose-Dependent Effect
same,Activity,Candida albicans [18],Dose-Dependent Effect
same,Activity,Candida albicans [19],Active
same,Activity,Candida albicans [20],Active
same,Activity,Candida albicans [21],Active
same,Activity,Candida albicans [22],Active
same,Activity,Candida albicans [23],Active
same,Activity,Candida albicans [24],Active
same,Activity,Candida albicans [25],Active
same,Activity,Candida albicans [26],Active
same,Activity,Candida albicans [27],Active
same,Activity,Candida albicans [28],Active
same,Activity,Candida albicans [29],Active
same,Activity,Candida albicans [30],Active
same,Activity,Candida albicans [31],Active
same,half-life,[32],2.8 min
same,"remaining at 3 h, 1 µM",[8],2.2%
same,half-life at 1 µM,[9],34 min
same,IC50,[10],24.4 µM
O=c1ccc2ccc(COC(Cn3ccnc3)c3ccc(F)cc3)cc2o1 (stereo unspecified),MIC,Candida albicans [1],2 µg/mL
same,MIC,Candida albicans [2],0.5 µg/mL
same,MIC,Candida parapsilosis,16 µg/mL
same,MIC,Nakaseomyces glabratus,64 µg/mL
same,MIC,Pichia kudriavzevii,32 µg/mL
same,MIC,Candida tropicalis,4 µg/mL
same,MIC,Cryptococcus neoformans,4 µg/mL
same,MIC,Candida albicans [3],128 µg/mL
same,MIC,Candida albicans [4],128 µg/mL
same,MIC,Candida albicans [5],32 µg/mL
same,MIC,Candida albicans [6],32 µg/mL
same,MIC,Candida albicans [7],64 µg/mL
O=c1oc2ccccc2cc1COC(Cn1ccnc1)c1ccc(F)cc1F (stereo unspecified),MIC,Candida albicans [1],0.06 µg/mL
same,MIC,Candida albicans [2],0.03 µg/mL
same,MIC,Candida parapsilosis,< 0.25 µg/mL
same,MIC,Nakaseomyces glabratus,1 µg/mL
same,MIC,Pichia kudriavzevii,0.5 µg/mL
same,MIC,Candida tropicalis,1 µg/mL
same,MIC,Cryptococcus neoformans,0.06 µg/mL
same,MIC,Candida albicans [3],0.5 µg/mL
same,MIC,Candida albicans [4],2 µg/mL
same,MIC,Candida albicans [5],4 µg/mL
same,MIC,Candida albicans [6],2 µg/mL
same,MIC,Candida albicans [7],16 µg/mL
